Measured values from PMC6150693 (Journal of the American Chemical Society, 2017).

Molecular target: T1, SBD2 (Lactococcus lactis, UniProt Q9CES5)
T1 sequence (Q9CES5 253-484 limits assumed): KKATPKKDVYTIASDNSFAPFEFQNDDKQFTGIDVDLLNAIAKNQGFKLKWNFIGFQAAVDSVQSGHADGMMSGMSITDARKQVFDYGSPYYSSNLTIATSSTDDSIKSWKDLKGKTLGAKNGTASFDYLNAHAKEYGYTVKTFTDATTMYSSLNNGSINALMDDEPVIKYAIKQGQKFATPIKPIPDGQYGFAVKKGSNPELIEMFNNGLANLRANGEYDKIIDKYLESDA
Assay: single-molecule ClyA nanopore current, relative closed population
Assay type: binding

## NC(=O)CC[C@H](N)C(=O)O [glutamine]
  Kd: 830 ± 100 nM
